One assay deals with T1, β-glucosidase GBA2 (Homo sapiens, UniProt Q9HCG7).
T1 construct: expressed in transfected cells; host or cells: HEK293T
T1 sequence (Q9HCG7 1-927): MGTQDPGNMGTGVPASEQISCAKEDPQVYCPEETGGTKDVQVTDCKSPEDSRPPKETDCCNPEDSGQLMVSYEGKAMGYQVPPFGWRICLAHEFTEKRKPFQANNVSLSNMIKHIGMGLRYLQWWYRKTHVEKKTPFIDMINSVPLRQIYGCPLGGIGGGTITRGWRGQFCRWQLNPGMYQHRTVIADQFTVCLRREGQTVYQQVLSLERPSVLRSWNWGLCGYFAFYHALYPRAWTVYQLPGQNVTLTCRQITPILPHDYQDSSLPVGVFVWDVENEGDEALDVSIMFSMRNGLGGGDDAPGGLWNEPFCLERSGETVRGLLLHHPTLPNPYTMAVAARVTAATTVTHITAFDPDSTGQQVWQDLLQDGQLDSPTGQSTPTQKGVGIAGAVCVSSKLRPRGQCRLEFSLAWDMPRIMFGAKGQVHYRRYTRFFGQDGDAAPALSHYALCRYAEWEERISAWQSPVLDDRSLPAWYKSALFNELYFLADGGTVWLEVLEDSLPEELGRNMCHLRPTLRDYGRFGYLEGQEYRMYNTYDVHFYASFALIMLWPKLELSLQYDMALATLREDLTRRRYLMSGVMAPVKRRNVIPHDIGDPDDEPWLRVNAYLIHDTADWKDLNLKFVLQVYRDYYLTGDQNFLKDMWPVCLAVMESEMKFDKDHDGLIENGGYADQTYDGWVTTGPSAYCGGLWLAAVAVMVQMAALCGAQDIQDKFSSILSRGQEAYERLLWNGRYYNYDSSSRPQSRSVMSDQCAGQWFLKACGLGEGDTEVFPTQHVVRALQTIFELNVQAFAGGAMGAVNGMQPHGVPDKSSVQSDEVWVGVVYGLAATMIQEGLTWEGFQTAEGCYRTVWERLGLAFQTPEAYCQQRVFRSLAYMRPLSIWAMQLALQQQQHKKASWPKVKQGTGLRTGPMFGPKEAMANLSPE
The assay is described as follows: in vitro apparent IC50, GBA2-overexpressing HEK293T lysate. Format: biochemical. Conditions: apparent IC50, pH 5.8, mean ± SD.

Assay [1] concerns the target T2, ER α-glucosidase II (GANAB) (Homo sapiens, UniProt Q14697).
T2 construct: GANAB (from Pompe Disease Fibroblast Lysates); endogenous in cells; host or cells: human fibroblasts (lysate)
T2 sequence (Q14697 29-944): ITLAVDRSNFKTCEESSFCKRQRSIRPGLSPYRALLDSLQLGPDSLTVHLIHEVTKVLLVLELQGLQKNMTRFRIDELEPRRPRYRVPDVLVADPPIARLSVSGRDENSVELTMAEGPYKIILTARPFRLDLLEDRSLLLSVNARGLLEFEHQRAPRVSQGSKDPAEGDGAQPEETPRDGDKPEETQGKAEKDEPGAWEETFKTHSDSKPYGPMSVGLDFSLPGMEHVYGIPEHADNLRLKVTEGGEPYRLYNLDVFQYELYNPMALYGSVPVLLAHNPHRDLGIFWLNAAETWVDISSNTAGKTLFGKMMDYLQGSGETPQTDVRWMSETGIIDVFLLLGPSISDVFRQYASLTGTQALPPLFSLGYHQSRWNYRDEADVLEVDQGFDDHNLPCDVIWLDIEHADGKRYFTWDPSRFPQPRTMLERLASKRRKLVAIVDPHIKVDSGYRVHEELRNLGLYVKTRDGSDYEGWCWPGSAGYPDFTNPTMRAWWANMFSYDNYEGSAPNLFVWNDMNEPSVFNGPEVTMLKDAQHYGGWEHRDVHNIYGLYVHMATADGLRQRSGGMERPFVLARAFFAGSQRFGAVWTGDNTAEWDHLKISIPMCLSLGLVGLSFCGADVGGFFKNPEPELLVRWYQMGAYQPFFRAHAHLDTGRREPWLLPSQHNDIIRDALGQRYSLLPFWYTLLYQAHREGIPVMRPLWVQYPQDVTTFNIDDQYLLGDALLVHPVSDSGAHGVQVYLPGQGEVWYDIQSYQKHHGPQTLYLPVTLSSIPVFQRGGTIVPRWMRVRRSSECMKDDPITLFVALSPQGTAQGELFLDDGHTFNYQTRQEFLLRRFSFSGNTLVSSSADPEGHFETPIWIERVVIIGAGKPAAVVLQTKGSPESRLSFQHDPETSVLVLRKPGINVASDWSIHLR
T2 sequence (P14314 15-528 partner): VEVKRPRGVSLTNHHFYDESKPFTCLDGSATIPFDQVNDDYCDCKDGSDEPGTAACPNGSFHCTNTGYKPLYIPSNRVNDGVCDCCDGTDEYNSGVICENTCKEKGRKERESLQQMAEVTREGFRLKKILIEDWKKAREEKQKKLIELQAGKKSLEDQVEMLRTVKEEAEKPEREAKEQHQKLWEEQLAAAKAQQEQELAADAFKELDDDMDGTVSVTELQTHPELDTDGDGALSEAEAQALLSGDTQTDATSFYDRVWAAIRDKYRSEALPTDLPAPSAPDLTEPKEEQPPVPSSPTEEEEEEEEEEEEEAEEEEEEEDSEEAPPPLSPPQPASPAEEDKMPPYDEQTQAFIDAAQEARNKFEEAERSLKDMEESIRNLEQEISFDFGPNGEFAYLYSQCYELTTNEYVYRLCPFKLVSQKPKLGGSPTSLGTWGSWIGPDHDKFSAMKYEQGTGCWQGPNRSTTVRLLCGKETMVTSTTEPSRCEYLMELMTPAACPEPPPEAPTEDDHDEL
Briefly: in vitro apparent IC50, GANAB in fibroblast lysates, 4-MU-α-D-glucopyranoside. As to conditions: apparent IC50; Pompe disease fibroblast lysates; pH 7.0; mean ± SD. The assay is classed as biochemical.

The target of assay [2] is α-glucosidase GAA (Myozyme) (Homo sapiens, UniProt P10253). Briefly: kinetic studies in rhGAA with increasing 4-MU-α-glucoside concentrations.

Structures are written as SMILES. A value given as a limit tells only on which side of the number the result lay.

The term IC50 denotes the concentration that gives 50% inhibition. Usually Ki stands for the equilibrium dissociation constant of an inhibitor or competing ligand from its target.

Take `O=S1(=O)N[C@@H]2[C@H](O)[C@@H](O)[C@H](O)[C@@H](CO)[C@@H]2O1` [compound 4, 1,6-epi-cyclophellitol cyclosulfamidate]: the IC50 was over 500 µM at β-glucosidase GBA2 and 496 ± 30 µM in assay [1]. Moreover, the Ki in assay [2] worked out at 3.4 µM. Besides, the “Ki potency relative to NB-DNJ 2 (more potent)” value in assay [2] was “approximately 5 fold”.
Take `O=S1(=O)N[C@H]2[C@H](CO)[C@@H](O)[C@H](O)[C@@H](O)[C@H]2O1` [compound 6]: the IC50 on β-glucosidase GBA2 was over 500 µM; in assay [1], 47 ± 1.75 µM.

These data come from paper PMC9389588, “1,6-epi-Cyclophellitol Cyclosulfamidate Is a Bona Fide Lysosomal α-Glucosidase Stabilizer for the Treatment of Pompe Disease” (Journal of the American Chemical Society, 2022).
